# Assay results as given in US8765728B2, “[1,5]-diazocin derivatives” (MelliTech, priority 2009, dated 2014).
# Tested on: Min6 cell
# Assay: Insulin secretion response of beta cell line to formula I compounds (insulin ELISA)
# Format: cell-based
# Conditions: rank according to % increase versus control at most effective dose
# Method in brief: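 After compound or vehicle exposure, Min6 cells were held 2 h in glucose-free medium and preincubated 30 min at 37° C in glucose-free KRBH (pH 7.4, 0.1% BSA). They were then incubated 30 min at 37° C in KRBH with varying glucose. Secreted insulin and acid-ethanol-extracted intracellular insulin were measured by ELISA.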
row,Compound,Insulin secretion (Min6 cell) Range 1 to 5
1,"C=CCOc1c(OC)ccc2c1CN(CC1CC1)C(=O)CCN2C(=O)c1ccno1 [Compound 169, 7-(allyloxy)-5-(cyclopropylmethyl)-1-(isoxazole-5-carbonyl)-8-methoxy-2,3,5,6-tetrahydrobenzo[b][1,5]diazocin-4(1H)-one]",4 (4: 140-170% of control)
2,"ethyl 2-(4-oxo-1,2,3,4-tetrahydrobenzo[b][1,5]diazocin-5(6H)-yl)acetate [Compound 155]",1 (1: 90-110% of control)
